Assay results from US20050031537A1, “Multifunctional COX-2 inhibitors” (priority 2002, published 2005).

What was measured:
HER-2/neu = assay: Western blotting for expression of HER-2/neu (test (b)); type: cell-based, human; conditions: positive in 184B5/HER, BT474 and SKBR3 cells; 24 h; Western blot
From the text: (§1) We turn now to the criterion (b), that is at least 50% decrease in level of or 50% downregulation of expression of Class I family of receptors tyrosine kinase. The Class I family of receptors tyrosine kinase is described in Reese, M. D., et al Stem Cells 15, pages 1-8 (1997), the whole of which in incorporated herein by reference. Members of the family include HER-2/neu, HER-3, HER-4 and epidermal growth factor receptor (EGFR) and are single-chain membrane spanning proteins which have significant homology to one another including about 80% amino acid identity in the tyrosine kinase domain.
HER-2/neu (erbB-2) gene product is a 185-kDA transmembrane receptor tyrosine kinase that is described in some detail in said Reese et al publication and overexpression thereof has been associated with tumor growth in several kinds of cancer.
(§2) To evaluate the expression of Class I family of receptors tyrosine kinase (EGFR, HER-2/neu), Western blotting can be performed. Antibodies for EGFR and HER-2/neu can be obtained from Santa Cruz Biotechnology, Inc.
(§3) Expression of EGFR (performed in 184B5, 184B5/HER, 1483, LNCaP, HeLa and CaSki cells)and HER-2/neu (performed in 184B5/HER, SKBR3 and BT474 cells) was assessed in cells after treatment with test compound for 24 hours. 5×10^6 cells were used for the treatment. Western blotting technique was used to assess the expression levels in cells treated with the test compound compared to vehicle alone. Western blotting was carried out as follows:
(§4) Cell lysates were prepared by treating cells with lysis buffer (150 mM NaCl, 100 mM Tris (pH 8.0), 1% Tween 20, 50 mM diethyldithiocarbamate, 1 mM EDTA, 1 mM phenylmethylsulfonyl fluoride, 10 μg/ml aprotinin, 10 μg/ml trypsin inhibitor and 10 μg/ml leupeptin). Lysates were sonicated for 20 s on ice and centrifuged at 10,000×g for 10 min to sediment the particulate material. The protein concentration of the supernatant was measured by the method of Lowry, O. H., et al., J. Biol. Chem. 193, 265-275 (195 1). SDS/PAGE was performed under reducing conditions on 10% polyacrylamide gels as described by Laemmli, U.K., Nature (Lond.) 227, 680-685 (1970). The resolved proteins were transferred onto nitrocellulose sheets as detailed by Towbin, H. et al., Proc. Natl. Acad. Sci. USA 76, 4350-4354 (1979). The nitrocellulose membrane was then incubated with anti-EGFR antiserum or anti-HER-2/neu antiserum. Secondary antibody to IgG conjugated to horseradish peroxidase was used. The various antisera were purchased from Santa Cruz Biotechnology, Inc., CA. The blots were probed with the Renaissance Western blot detection system according to the manufacturer's instructions (PerkinElmer Life Sciences, Boston, Mass.).

[1] = Patient with atherosclerosis (Example VI); type: in vivo, human; conditions: person one, 200 mg bid
From the text: patient one presents with symptoms of chest discomfort on exertion and is diagnosed with atherosclerosis. […] The progression of the atherosclerosis stops.

[2] = Patient with cervical intraepithelial neoplasia, HPV 16 detected (Example VIII); type: in vivo, human; conditions: person, 0.5% in a cream on sponge/cervical cap, six months
From the text: A person presents to their gynecologist for evaluation. […] On biopsy, the patient is found to have cervical intraepithelial neoplasia. HPV 16 is detected. […] The SC-236 is discontinued with no recurrence of cervical intraepithelial neoplasia.

[3] = tested on: HPV16 oncoproteins E6 and E7; assay: Western and Northern blotting for HPV16 oncoproteins E6 and E7 (test (d)); type: cell-based, human papillomavirus; conditions: positive in CaSki and SiHa cells
Procedure: We turn now to the criterion (d), that is at least 50% downregulation of expression of HPV16 oncoproteins E6 and E7.
Protein E6 and E7 which are expressed by HPV16 are believed to play a major role in carcinogenesis.
Western blotting and Northern blotting techniques were used to evaluate the expression of HPV E6 and E7 proteins. The cell lines used for the study were CaSKi and SiHa. The cells were treated with the test compound and cell lysate was obtained as described above and subjected to Western blotting analysis. The Western blotting analysis was performed as described above except anti-HPV 16 E7 antibody was used to probe the blot. The antibody was obtained from Santa Cruz Biotechnology, Inc. CA. For Northern blotting, total cellular RNA was isolated from cell monolayers using an RNA isolation kit from QIAGEN Inc. after treatment with the test compound. 10 μg of total cellular RNA per lane were electrophoresed in a formaldehyde-containing 1.2% agarose gel and transferred to nylon-supported membranes. After baking, membranes were prehybridized overnight in a solution containing 50% formamide, 5×sodium chloride-sodium phosphate-EDTA buffer (SSPE), 5×Denhardt's solution, 0.1% SDS and 100 μg/ml single-stranded salmon sperm DNA and then hybridized for 12 h at 42° C. with radiolabeled cDNA probes for human HPV16 E6 or E7 cDNAs and 18S rRNA. E6 and E7 (as described in Woodworth, C. D., Cancer Res. 16, 4397-4402 (2000)) and 18S rRNA probes were labeled with [^32P]-CTP by random priming. After hybridization, membranes were washed twice for 20 min at room temperature in 2×SSPE-0.1% SDS, twice for 20 min in the same solution at 55° C., and twice for 20 min in 0.1×SSPE-0.1% SDS at 55° C. Washed membranes were then subjected to autoradiography.

EGFR = assay: Western blotting for expression of EGFR (test (b)); type: cell-based, human; conditions: positive in 184B5, 184B5/HER, 1483, LNCaP, HeLa and CaSki cells; 24 h; Western blot
From the text: as §1
Epidermal growth factor receptor (EGFR) is a 170 kDA glycoprotein. […] After ligand binding, EGFR undergoes dimerization which is essential for activation of its enzymatic kinase activity. EGFR is thus autophospliorylated and transphosphorylated on tyrosine residues, and the phosphorylated residues become the site of association of effector proteins. Overexpressed EGFR is intimately involved in modulating the epidermal growth factor growth signal and is considered as likely to confer a growth advantage. This conclusion is supported by the observation that tumor growth in nude mice is inhibited by treatment with anti-EGFR antibodies and tumorigenicity in nude mice is inhibited through blockage of the tyrosine kinase activity of the receptor.
as §2, §3, §4

cyclin D1 = assay: Western blotting for expression of cyclin D1 (test (c)); type: cell-based, human; conditions: positive in 184B5, 184B5/HER cells; 24 h; Western blot
Procedure: Cyclin D1 is a protein that is important in regulating cell proliferation and is described in Ortega, S., et al, Biochimica et Biophysica Acta 1602, 73-87, (2002), the whole of which is incorporated by reference. […] Effects on expression of cyclin D1 was investigated in 184B5, 184B5/HER, HCA7, HCT116, SKBR3 and BT474 cells. The expression was assessed in cells after treatment with test compound or vehicle using 5×10^4 cells for 24 hours. Western blotting technique was used as follows to assess the expression levels of cyclin D1 in cells treated with the test compound and compared to levels in cells treated with vehicle alone. Cell lysates were prepared by treating cells with lysis buffer as described above. […] The resolved proteins were transferred onto nitrocellulose sheets. The nitrocellulose membrane was then incubated with anti-cyclin D1 antiserum. Secondary antibody to IgG conjugated to horseradish peroxidase was used. The various antisera were purchased from Santa Cruz Biotechnology, Inc., CA. The blots were probed with the Renaissance Western blot detection system according to the manufacturer's instructions (PerkinElmer Life Sciences, Boston, Mass.).

PPRE luciferase = PPRE luciferase activation, transient transfection reporter assay (test (a)); type: cell-based, human; conditions: positive in 184B5, 184B5/HER, HCA7, HCT116, SKBR3 and BT474 cells; 24 h treatment
From the text: We turn now to criterion (a), that is activation of PPRE luciferase by at least 100%. PPRE-luciferase refers to a DNA construct containing the peroxisome proliferator activated receptor (PPAR) binding element joined to luciferase. Cells are transfected with PPRE-luciferase DNA. Ligands of PPAR induce luciferase activity. The ability of a test compound to stimulate PPRE-luciferase signifies that the test compound activates PPAR-mediated gene transcription. PPRE means peroxisome proliferator response element and the method by which PPRE-luciferase is constructed is described in Schoonjans, K., et al, J. Biol. Chem. 270, No. 33, 19269-19276 (Aug. 18, 1995). Use of PPRE-luciferase in a transient transfection to measure increase in promoter activity is disclosed in Subbaramaiah, K. et al, J. Biol. Chem. 270, No. 15, 12440-12448 (Apr. 13, […]).
For each well, 1.8 μg of PPRE3-tk-luciferase construct plasmid DNA (described in Forman, B. M., et al, Cell 83, 803 (1995)) plus 0.2 μg of pSV-β-galactosidase were introduced into cells using 8 μg of LipofectAMINE as per the manufacturer's instructions (Invitrogen, CA). After 7 h of incubation, the medium was replaced with basal medium. After transfection, cells were treated with test compound for 24 h. Reporter activities which include luciferase and β-galactosidase were measured in cellular extract 24 h later. Six wells were used for each of the conditions. Luciferase activity represents data that have been normalized with β-galactosidase.
The luciferase assay was performed as per the BD Pharmingen assay reagents. The Enhanced Luciferase Assay Kit provides a firefly luciferase substrate formulation (Substrates A and B) and cell lysis buffer intended for use in measuring luciferase expressed by transfected cells. Media from cell culture plates was removed and rinsed twice with phosphate buffered saline. Enough 1X cell lysis buffer was added to cover cells and incubated at room temperature for 15-20 min. Cells were dislodged by scraping and transferred to microcentrifuge tubes. […] 20-100 μl cell extract was placed into an assay cuvette. One automatic injector type luminometer is used for assay. Manually 100 μl of Substrate A was added to the assay cuvette and automatically 100 μl of Substrate B was injected. Measurements were performed using a luminometer, for a measurement time of 10 seconds.
The β-galactosidase assay was performed as follows:
50 μl of cell lysate from above was incubated with 50 μl of o-nitrophenyl-β-D-galactoside (ONPG; 4 mg/mL) in Z buffer, (Na2HPO4.7H2O (0.06M), NaH2PO4.H2O (0.04M), 1M KCl (0.01M), 1M MgSO4 (0.001M), β-mercaptoethanol (BME) (0.05M) pH 7.0). The reaction was stopped after sufficient yellow color has developed. The yellow color developed is measured at A420 […].

Nrf-2 = assay: Western and Northern blotting for expression of Nrf-2 (test (g)); type: cell-based, human; conditions: positive in 184B5, 184B5/HER, HCA7, HCT116, SKBR3, BT474 and CaSki cells
Procedure: We turn now to criterion (g), i.e. at least 50% increase in expression of Nrf-2. […] 13, 2001).
Western blotting and Northern blotting techniques were used to evaluate the expression of Nrf-2. The expression of Nrf-2 was evaluated in HCA7, HCT116, SKBR3, CaSki, 184B5/HER, 184B5 and BT474 cells. 5×10^6cells were used to treat either vehicle alone or the test compound. The Western blotting analysis was performed as described above except anti-Nrf-2 antibody was used to probe the blot. The antibody was obtained from Santa Cruz Biotechnology, Inc. CA. Northern blotting for Nrf-2 was performed as described above and cDNA for Nrf-2 as described in Gong, P., et al., J.Biol Chem 20; 276:27018-27025 (2001) was used as a probe.

Which results are given for COc1ccc(-n2nc(C(F)(F)F)cc2-c2ccc(Cl)cc2)cc1 [SC-560, 5-(4-chlorophenyl)-1-(4-methoxyphenyl)-3-(trifluoromethyl)-1H-pyrazole]?
Test (b) HER-2/neu: at least 50% decrease in level of or 50% downregulation of expression (HER-2/neu): + (A plus sign in the table indicates a positive result, that is meeting the test for each cell line as indicated above as providing a positive result); progression of the atherosclerosis [1]: stops; repeat biopsy finding of cervical intraepithelial neoplasia [2]: no evidence of cervical intraepithehal neoplasia; Test (d) at least 50% downregulation of expression of HPV16 oncoproteins E6 and E7 [3]: + (A plus sign in the table indicates a positive result, that is meeting the test for each cell line as indicated above as providing a positive result)

For COc1ccc2c(c1)c(CC(=O)Nc1ccc(NC(C)=O)cc1)c(C)n2C(=O)c1ccc(Cl)cc1 [Indomethacin Analog 5], which “Test (b) EGFR: at least 50% decrease in level of or 50% downregulation of expression” value (EGFR) is on record?
The value was “+ (A plus sign in the table indicates a positive result, that is meeting the test for each cell line as indicated above as providing a positive result)”.

What about the “Test (c) at least 50% downregulation of expression of cyclin D1” value (cyclin D1) of the same compound?
Its value is “+ (A plus sign in the table indicates a positive result, that is meeting the test for each cell line as indicated above as providing a positive result)”.

What about the “Test (a) activation of PPRE luciferase by at least 100%” value (PPRE luciferase) of the same compound?
Its value is “+ (A plus sign in the table indicates a positive result, that is meeting the test for each cell line as indicated above as providing a positive result)”.

What about the “Test (g) at least 50% increase in expression of Nrf-2” value (Nrf-2) of the same compound?
Its value is “+ (A plus sign in the table indicates a positive result, that is meeting the test for each cell line as indicated above as providing a positive result)”.
